# Like-named read-outs stand apart in the source and are kept apart here. Marks after values point to notes of the source that are not given here.
# Legend:
# [1] = for Stock solution stability: stock solutions
# From the text: This example provides an LC-MS/MS method for the determination of ketamine and norketamine in sodium heparin human plasma using ketamine-d4 and norketamine-d4 as the respective internal standards (IS).
# [2] = Pharmacokinetics of intranasal esketamine in healthy subjects (Example 9); settings: for Metabolite/Parent Ratio AUClast / Metabolite/Parent Ratio AUC∞ / Metabolite/Parent Ratio tmax / AUClast / AUC∞ / Cmax / t1/2: mean; for tmax: median
# Method: Pharmacokinetic blood samples for measurement of esketamine and noresketamine concentrations in plasma were collected from predose until up to 24 hours after each intranasal esketamine regimen on Day 1 of each period.
# Blood samples (4 mL each) for determination of esketamine and noresketamine plasma concentrations were collected into the appropriate collection tube (e.g., Vacutainer®) at timepoints 0.00, 0.12, 0.20, 0.37, 0.53, 0.67, 0.83, 1.00, 1.25, 1.50, 2.00, 3.00, 4.00, 6.00, 9.00, 12.00, 18.00, and 24.00 h. The total amount of blood to be drawn for clinical laboratory tests and PK evaluations is approximately 327 mL.
# Plasma samples were analyzed for esketamine and noresketamine concentrations using the validated, specific and sensitive liquid chromatography coupled to tandem mass spectrometry (LC-MS/MS) achiral method of Example 8.
# Serial PK blood samples (4 mL each) were collected for a 24-hour period from each subject (Periods 1, 2, and 3). […] Statistical Methods 1.6.4.1. Sample Size
# The following key parameters of esketamine and noresketamine in plasma were calculated using noncompartmental methods and actual sampling times: Cmax, tmax, AUClast, AUC∞, t1/2,λ, and λz.
# [3] = system: MDD/TRD subjects; settings: 52-week safety study in MDD/TRD subjects (Berman et al., 2011); cited from earlier work
# [4] = after A: Esketamine 28 mg intranasal
# [5] = after B: Esketamine 56 mg intranasal
# [6] = after C: Esketamine 84 mg intranasal
# [7] = healthy subjects, 28, 56 and 84 mg
# [8] = metabolite after A: Esketamine 28 mg intranasal
# [9] = metabolite after B: Esketamine 56 mg intranasal
# [10] = metabolite after C: Esketamine 84 mg intranasal
smiles,measurement,setting,value
CN[C@]1(c2ccccc2Cl)CCCCC1=O [5-Ketamine],QC sample long-term storage stability,"[1]; human plasma, −20° C.",707 days at −20 °C
N[C@]1(c2ccccc2Cl)CCCCC1=O [noresketamine],Metabolite/Parent Ratio AUClast,[2]; [4],3.62
same,Metabolite/Parent Ratio AUC∞,[2]; [4],3.80^b
same,Metabolite/Parent Ratio tmax,[2]; [4],1.96 h
same,Metabolite/Parent Ratio AUClast,[2]; [5],4.07
same,Metabolite/Parent Ratio AUC∞,[2]; [5],4.22^b
same,Metabolite/Parent Ratio tmax,[2]; [5],2.28 h
same,Metabolite/Parent Ratio AUClast,[2]; [6],4.32
same,Metabolite/Parent Ratio AUC∞,[2]; [6],4.46^d
same,Metabolite/Parent Ratio tmax,[2]; [6],2.55 h
same,"AUC (AUClast and AUC∞) variability, range",[2]; [7],17.0% to 21.3
same,"AUClast, mean ratio of noresketamine to esketamine, range",[2]; [7],3.62 to 4.32
same,"AUC∞, mean ratio of noresketamine to esketamine, range",[2]; [7],3.80 to 4.46
same,"Cmax variability (percent coefficient of variation), range across treatment groups",[2]; [7],25.8% to 33.7
same,"Cmax, mean ratio of noresketamine to esketamine, range",[2]; [7],1.96 to 2.55
same,"Mean t1/2, range",[2]; [7],7.48 to 7.74 h
same,"Median tmax, range across the 3 intranasal regimens","[2]; healthy subjects, 28, 56 and 84 mg intranasal esketamine",1.25 to 1.5 h
same,AUClast,[2]; [8],454 ng·h/mL
same,AUC∞,[2]; [8],508^ h * ng/mL
same,Cmax,[2]; [8],92.8 ng/mL
same,t1/2,[2]; [8],7.74 h
same,tmax,[2]; [8],1.25 h
same,AUClast,[2]; [9],851 ng·h/mL
same,AUC∞,[2]; [9],924^c h * ng/mL
same,Cmax,[2]; [9],154 ng/mL
same,t1/2,[2]; [9],7.71^c h
same,tmax,[2]; [9],1.50 h
same,AUClast,[2]; [10],1287 ng·h/mL
same,AUC∞,[2]; [10],1392^b h * ng/mL
same,Cmax,[2]; [10],241 ng/mL
same,t1/2,[2]; [10],7.48^b h
same,tmax,[2]; [10],1.50 h
OCCOCCN1CCN(C2=Nc3ccccc3Sc3ccccc32)CC1 [quetiapine],Discontinuation rate due to adverse events,[3],23.7%
NC1(c2ccccc2Cl)CCCCC1=O (stereo not drawn) [Norketamine],QC sample freeze/thaw stability,[1]; freeze (−20° C.)/thaw (ice-water bath),3 freeze (−20° C.)/thaw (ice-water bath) cycles
same,QC sample freeze/thaw stability,[1]; freeze (−20° C.)/thaw (room temperature),3 freeze (−20° C.)/thaw (room temperature) cycles
same,QC sample bench-top stability,"[1]; human plasma, room temperature",68.5 hours at room temp
same,QC sample long-term storage stability,"[1]; human plasma, −20° C.",1552 days at −20 °C
same,Processed sample stability,[1]; room temperature,146.5 hours at room temperature
same,Whole Blood Stability,[1]; room temperature and ice-water bath (0-4° C.),120 minutes at room temperature and in an ice-water bath
same,Stock solution stability (spike solutions),"[1]; spike solutions, −20° C.",610 days at −20 °C for ketamine/norketamine spike solutions
same,Stock solution stability,[1]; room temperature under white light,6 h
same,Stock solution stability,[1]; −20° C.,15100 h
